Experimental data taken from PubChem BioAssay (NCI).
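Tested at 5 concentrations; 48 h exposure; 96-well plates; endpoints linearly interpolated, else capped at highest concentration. TGI marks complete inhibition of growth.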

Tests used:
Experiment in all cases: NCI tumour cell line growth inhibition, 48 h
786-0 renal = tested on: 786-0 renal
A498 renal = tested on: A498 renal
A549 NSCLC = tested on: A549 NSCLC
ACHN renal = tested on: ACHN renal
CAKI-1 renal = tested on: CAKI-1 renal
CCRF-CEM leukemia = tested on: CCRF-CEM leukemia
COLO 205 colon = tested on: COLO 205 colon
DLD-1 colon = tested on: DLD-1 colon
DMS 114 small cell lung = tested on: DMS 114 small cell lung
DMS 273 small cell lung = tested on: DMS 273 small cell lung
EKVX NSCLC = tested on: EKVX NSCLC
HCC-2998 colon = tested on: HCC-2998 colon
HCT-116 colon = tested on: HCT-116 colon
HCT-15 colon = tested on: HCT-15 colon
HL-60(TB) leukemia = tested on: HL-60(TB) leukemia
HOP-18 NSCLC = tested on: HOP-18 NSCLC
HOP-62 NSCLC = tested on: HOP-62 NSCLC
HOP-92 NSCLC = tested on: HOP-92 NSCLC
HT29 colon = tested on: HT29 colon
IGROV1 ovarian = tested on: IGROV1 ovarian
K-562 leukemia = tested on: K-562 leukemia
KM12 colon = tested on: KM12 colon
KM20L2 colon = tested on: KM20L2 colon
LOX IMVI melanoma = tested on: LOX IMVI melanoma
LXFL 529 NSCLC = tested on: LXFL 529 NSCLC
M14 melanoma = tested on: M14 melanoma
M19-MEL melanoma = tested on: M19-MEL melanoma
MALME-3M melanoma = tested on: MALME-3M melanoma
MOLT-4 leukemia = tested on: MOLT-4 leukemia
NCI-H23 lung = tested on: NCI-H23 lung
NCI-H460 lung = tested on: NCI-H460 lung
NCI-H522 lung = tested on: NCI-H522 lung
OVCAR-3 ovarian = tested on: OVCAR-3 ovarian
OVCAR-4 ovarian = tested on: OVCAR-4 ovarian
OVCAR-5 ovarian = tested on: OVCAR-5 ovarian
OVCAR-8 ovarian = tested on: OVCAR-8 ovarian
RPMI-8226 leukemia = tested on: RPMI-8226 leukemia
RXF 393 renal = tested on: RXF 393 renal
SF-268 CNS = tested on: SF-268 CNS
SF-295 CNS = tested on: SF-295 CNS
SF-539 CNS = tested on: SF-539 CNS
SK-MEL-2 melanoma = tested on: SK-MEL-2 melanoma
SK-MEL-28 melanoma = tested on: SK-MEL-28 melanoma
SK-MEL-5 melanoma = tested on: SK-MEL-5 melanoma
SK-OV-3 ovarian = tested on: SK-OV-3 ovarian
SN12C renal = tested on: SN12C renal
SNB-19 CNS = tested on: SNB-19 CNS
SNB-75 CNS = tested on: SNB-75 CNS
SNB-78 CNS = tested on: SNB-78 CNS
SR leukemia = tested on: SR leukemia
SW-620 colon = tested on: SW-620 colon
TK-10 renal = tested on: TK-10 renal
U251 CNS = tested on: U251 CNS
UACC-257 melanoma = tested on: UACC-257 melanoma
UACC-62 melanoma = tested on: UACC-62 melanoma
UO-31 renal = tested on: UO-31 renal
XF 498 CNS = tested on: XF 498 CNS

CCOC(=O)NC(=O)c1cn(-c2ccc(CCOC(=O)NCCCCCCNC(=O)OCCc3ccc(-n4c(=O)[nH]cc(C(=O)NC(=O)OCC)c4=O)cc3)cc2)c(=O)[nH]c1=O
TGI (786-0 renal): > 100 µM
TGI (A498 renal): > 100 µM
TGI (A549 NSCLC): > 100 µM
TGI (ACHN renal): > 92.7 µM
TGI (CAKI-1 renal): > 100 µM
TGI (CCRF-CEM leukemia): > 100 µM
TGI (COLO 205 colon): > 100 µM
TGI (DLD-1 colon): > 100 µM
TGI (DMS 114 small cell lung): > 100 µM
TGI (DMS 273 small cell lung): > 100 µM
TGI (EKVX NSCLC): > 100 µM
TGI (HCC-2998 colon): > 100 µM
TGI (HCT-116 colon): > 100 µM
TGI (HCT-15 colon): > 100 µM
TGI (HL-60(TB) leukemia): > 100 µM
TGI (HOP-18 NSCLC): > 100 µM
TGI (HOP-62 NSCLC): 72 µM
TGI (HOP-92 NSCLC): > 100 µM
TGI (HT29 colon): > 100 µM
TGI (IGROV1 ovarian): > 100 µM
TGI (K-562 leukemia): > 100 µM
TGI (KM12 colon): > 100 µM
TGI (KM20L2 colon): > 100 µM
TGI (LOX IMVI melanoma): > 100 µM
TGI (LXFL 529 NSCLC): 69.7 µM
TGI (M14 melanoma): > 100 µM
TGI (M19-MEL melanoma): > 94.8 µM
TGI (MALME-3M melanoma): > 91.9 µM
TGI (MOLT-4 leukemia): > 100 µM
TGI (NCI-H23 lung): > 100 µM
TGI (NCI-H460 lung): > 76.8 µM
TGI (NCI-H522 lung): 68.6 µM
TGI (OVCAR-3 ovarian): > 100 µM
TGI (OVCAR-4 ovarian): > 100 µM
TGI (OVCAR-5 ovarian): > 100 µM
TGI (OVCAR-8 ovarian): > 100 µM
TGI (RPMI-8226 leukemia): > 100 µM
TGI (RXF 393 renal): > 100 µM
TGI (SF-268 CNS): > 84.8 µM
TGI (SF-295 CNS): > 82.4 µM
TGI (SF-539 CNS): 54.5 µM
TGI (SK-MEL-2 melanoma): > 100 µM
TGI (SK-MEL-28 melanoma): > 100 µM
TGI (SK-MEL-5 melanoma): > 100 µM
TGI (SK-OV-3 ovarian): > 89.8 µM
TGI (SN12C renal): > 100 µM
TGI (SNB-19 CNS): 51.4 µM
TGI (SNB-75 CNS): 67.3 µM
TGI (SNB-78 CNS): 98.8 µM
TGI (SR leukemia): > 100 µM
TGI (SW-620 colon): > 100 µM
TGI (TK-10 renal): 97.5 µM
TGI (U251 CNS): > 74.9 µM
TGI (UACC-257 melanoma): > 100 µM
TGI (UACC-62 melanoma): 60.6 µM
TGI (UO-31 renal): > 93.9 µM
TGI (XF 498 CNS): > 48.9 µM

CC(C)(Oc1ccc(C(=O)c2ccc(Cl)cc2)cc1Cl)C(=O)Nc1c(Cl)cccc1Cl
TGI (786-0 renal): > 100 µM
TGI (A498 renal): > 100 µM
TGI (A549 NSCLC): > 100 µM
TGI (CAKI-1 renal): > 100 µM
TGI (CCRF-CEM leukemia): > 100 µM
TGI (DLD-1 colon): > 100 µM
TGI (DMS 114 small cell lung): > 100 µM
TGI (DMS 273 small cell lung): > 100 µM
TGI (EKVX NSCLC): > 100 µM
TGI (HCT-116 colon): > 100 µM
TGI (HCT-15 colon): > 100 µM
TGI (HL-60(TB) leukemia): > 100 µM
TGI (HOP-18 NSCLC): > 100 µM
TGI (HOP-62 NSCLC): > 100 µM
TGI (HOP-92 NSCLC): > 100 µM
TGI (HT29 colon): > 100 µM
TGI (IGROV1 ovarian): > 100 µM
TGI (K-562 leukemia): > 100 µM
TGI (KM12 colon): > 100 µM
TGI (KM20L2 colon): > 100 µM
TGI (LOX IMVI melanoma): > 100 µM
TGI (LXFL 529 NSCLC): > 100 µM
TGI (M14 melanoma): > 100 µM
TGI (M19-MEL melanoma): > 100 µM
TGI (MALME-3M melanoma): > 100 µM
TGI (MOLT-4 leukemia): > 100 µM
TGI (NCI-H23 lung): > 100 µM
TGI (NCI-H460 lung): > 100 µM
TGI (NCI-H522 lung): > 100 µM
TGI (OVCAR-3 ovarian): > 100 µM
TGI (OVCAR-5 ovarian): > 100 µM
TGI (OVCAR-8 ovarian): > 100 µM
TGI (RPMI-8226 leukemia): > 100 µM
TGI (RXF 393 renal): > 100 µM
TGI (SF-268 CNS): > 100 µM
TGI (SF-295 CNS): > 100 µM
TGI (SF-539 CNS): > 100 µM
TGI (SK-MEL-2 melanoma): > 100 µM
TGI (SK-MEL-28 melanoma): > 100 µM
TGI (SK-MEL-5 melanoma): > 100 µM
TGI (SK-OV-3 ovarian): > 100 µM
TGI (SNB-19 CNS): > 100 µM
TGI (SNB-78 CNS): > 100 µM
TGI (SR leukemia): > 100 µM
TGI (SW-620 colon): > 100 µM
TGI (TK-10 renal): > 100 µM
TGI (U251 CNS): > 100 µM
TGI (UACC-257 melanoma): > 100 µM
TGI (UACC-62 melanoma): > 100 µM
TGI (UO-31 renal): > 100 µM
TGI (XF 498 CNS): > 100 µM
